From patent US10077261B2, “Imidazolin-5-one derivative useful as FASN inhibitors for the treatment of cancer” (Janssen Pharmaceutica NV, priority 2012, dated 2018)

Legend:
A2780 ovarian cells [1] = experiment: A2780 ovarian cell proliferation assay in lipid reduced medium, without palmitate (MTT); type: cell-based; details: Homo sapiens, A2780, 96 h; read-out: pIC50 A2780 Ovarian Cell, Without Palmitate (converted)
[2] = system: PC-3M-Luc-C6 prostate cells; experiment: In vitro PC-3M-Luc-C6 prostate cell proliferation assay in lipid reduced medium; type: cell-based; details: 96 h, read-out: pIC50 PC-3M-Luc-C6 prostate cell (converted)
A2780 ovarian cells [3] = experiment: A2780 ovarian cell proliferation assay in lipid reduced medium, with palmitate (MTT); type: cell-based; details: Homo sapiens, A2780, 96 h; read-out: pIC50 A2780 Ovarian Cell, With Palmitate (converted)
Method in brief: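 Seeded cells were switched next day to lipid-reduced serum, exposed to compound and 25 μM palmitate complexed with fatty-acid-free BSA, and incubated 96 h. Proliferation was then determined by MTT absorbance at 544 nm, with a best-fit curve of signal against concentration.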

[4] = molecular target: T1, hFASN enzyme (full length) (Homo sapiens, UniProt P49327); experiment: Fatty Acid Synthase (FASN) inhibition scintillation proximity assay; type: biochemical; details: for inhibition at 10 µM: read-out: Human FASN % inhibition @ 10 μM, 10 μM test compound; for IC50: read-out: Human FASN pIC50 (converted)
T1 construct: 10 μL hFASN enzyme (full length, 300 ng, purified in house); made in house
Method in brief: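 Full-length in-house purified enzyme (300 ng) was tested in 100 mM KH2PO4 pH 7.5, 1 mM DTT with ³H-acetyl-CoA and malonyl-CoA as substrates; compounds ranged 0.01–30 μM. Reactions were stopped with streptavidin imaging beads, read by LEADseeker at 610 nm, and fitted to a 4-parameter logistic curve.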

[5] = molecular target: Fatty Acid Synthase Keto-reductase Domain (FASN KR) (Homo sapiens, UniProt P49327); experiment: Fatty Acid Synthase keto-reductase domain (FASN KR) inhibition, NADPH oxidation at 340 nm
Procedure: After 20 minutes incubation at room temperature the plate was measured again (T2).
The decrease in absorbance was calculated as (Absorbance before incubation T1)−(Absorbance following incubation T2).
A plot of Controlmin versus test compound concentration was fitted to a 4-parameter logistic curve using a non-linear least squares regression method.

[6] = system: LNCaP-Vancouver prostate cells; experiment: In vitro LNCaP Vancouver prostate cell proliferation assay in lipid reduced medium; type: cell-based; details: read-out: pIC50 LNCaP_Vancouver prostate cell (converted)

T1 sequence (P49327 whole entry): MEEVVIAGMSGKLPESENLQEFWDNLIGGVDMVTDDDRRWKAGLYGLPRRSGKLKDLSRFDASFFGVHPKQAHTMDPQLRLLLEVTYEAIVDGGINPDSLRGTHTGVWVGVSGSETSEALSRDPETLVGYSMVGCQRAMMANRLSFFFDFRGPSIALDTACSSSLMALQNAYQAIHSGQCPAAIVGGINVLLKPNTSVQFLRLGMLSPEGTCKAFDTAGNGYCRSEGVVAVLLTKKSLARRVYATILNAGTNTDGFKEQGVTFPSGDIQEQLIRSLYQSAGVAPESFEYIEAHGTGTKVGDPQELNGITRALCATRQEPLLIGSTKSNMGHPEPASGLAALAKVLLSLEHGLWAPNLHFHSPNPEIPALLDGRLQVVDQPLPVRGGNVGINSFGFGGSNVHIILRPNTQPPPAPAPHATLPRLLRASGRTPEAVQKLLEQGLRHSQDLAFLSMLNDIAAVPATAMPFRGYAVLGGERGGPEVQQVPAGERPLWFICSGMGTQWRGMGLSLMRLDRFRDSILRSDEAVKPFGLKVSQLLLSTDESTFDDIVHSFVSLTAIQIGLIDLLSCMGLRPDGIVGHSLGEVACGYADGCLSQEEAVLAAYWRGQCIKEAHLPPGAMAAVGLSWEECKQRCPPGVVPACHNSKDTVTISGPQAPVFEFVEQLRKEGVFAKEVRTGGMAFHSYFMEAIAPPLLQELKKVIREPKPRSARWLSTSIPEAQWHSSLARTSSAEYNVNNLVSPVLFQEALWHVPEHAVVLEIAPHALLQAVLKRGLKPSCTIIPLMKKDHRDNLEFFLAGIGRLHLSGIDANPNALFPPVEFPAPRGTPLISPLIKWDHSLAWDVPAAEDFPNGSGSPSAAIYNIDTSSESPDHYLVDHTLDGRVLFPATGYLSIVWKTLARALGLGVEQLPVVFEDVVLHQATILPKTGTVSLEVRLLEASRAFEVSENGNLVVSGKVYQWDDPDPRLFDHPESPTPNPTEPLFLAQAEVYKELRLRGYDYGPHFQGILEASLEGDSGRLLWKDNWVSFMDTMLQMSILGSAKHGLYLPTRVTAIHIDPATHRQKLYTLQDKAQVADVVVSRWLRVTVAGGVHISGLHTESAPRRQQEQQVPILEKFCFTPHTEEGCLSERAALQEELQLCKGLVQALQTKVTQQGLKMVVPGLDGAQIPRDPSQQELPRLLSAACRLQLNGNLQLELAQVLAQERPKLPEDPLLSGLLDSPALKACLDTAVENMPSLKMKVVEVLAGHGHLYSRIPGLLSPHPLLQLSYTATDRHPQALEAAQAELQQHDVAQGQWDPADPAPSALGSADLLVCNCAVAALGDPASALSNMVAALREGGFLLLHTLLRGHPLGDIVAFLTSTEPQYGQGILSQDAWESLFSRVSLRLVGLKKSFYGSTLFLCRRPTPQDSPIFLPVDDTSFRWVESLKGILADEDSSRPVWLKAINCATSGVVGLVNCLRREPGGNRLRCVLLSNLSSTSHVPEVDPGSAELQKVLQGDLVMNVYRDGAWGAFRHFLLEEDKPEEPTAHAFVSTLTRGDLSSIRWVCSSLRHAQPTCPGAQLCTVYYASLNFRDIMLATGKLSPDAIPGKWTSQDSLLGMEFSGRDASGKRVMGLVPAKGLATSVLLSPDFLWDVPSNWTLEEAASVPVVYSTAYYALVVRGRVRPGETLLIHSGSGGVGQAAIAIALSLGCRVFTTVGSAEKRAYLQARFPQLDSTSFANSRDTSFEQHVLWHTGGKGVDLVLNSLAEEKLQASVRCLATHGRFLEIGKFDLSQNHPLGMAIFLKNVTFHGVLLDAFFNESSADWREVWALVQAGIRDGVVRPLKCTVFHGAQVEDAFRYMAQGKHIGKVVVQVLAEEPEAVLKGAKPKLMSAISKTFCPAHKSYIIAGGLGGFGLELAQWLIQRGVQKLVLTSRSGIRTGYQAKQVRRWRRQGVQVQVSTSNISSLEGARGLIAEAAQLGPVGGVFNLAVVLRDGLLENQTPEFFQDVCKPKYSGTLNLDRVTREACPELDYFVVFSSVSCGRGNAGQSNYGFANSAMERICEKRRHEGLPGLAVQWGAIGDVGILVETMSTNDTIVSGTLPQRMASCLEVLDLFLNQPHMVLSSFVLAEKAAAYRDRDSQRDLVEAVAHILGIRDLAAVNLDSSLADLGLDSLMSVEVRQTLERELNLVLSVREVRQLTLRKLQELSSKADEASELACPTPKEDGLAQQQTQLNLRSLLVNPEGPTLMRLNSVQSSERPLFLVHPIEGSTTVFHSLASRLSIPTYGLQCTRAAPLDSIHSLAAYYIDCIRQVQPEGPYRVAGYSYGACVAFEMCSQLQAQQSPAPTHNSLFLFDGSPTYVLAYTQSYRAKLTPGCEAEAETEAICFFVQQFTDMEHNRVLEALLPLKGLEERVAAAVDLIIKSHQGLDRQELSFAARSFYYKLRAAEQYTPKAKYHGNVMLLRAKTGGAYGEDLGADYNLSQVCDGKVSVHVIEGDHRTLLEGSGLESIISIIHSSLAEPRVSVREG
Chain of Fatty Acid Synthase Keto-reductase Domain (FASN KR) (P49327 whole entry, the tested form may be a part): as the sequence (P49327 whole entry) above

Row | Compound | IC50 (A2780 ovarian cells [1]) [nM] | IC50 [2] [nM] | IC50 (A2780 ovarian cells [3]) [nM] | inhibition at 10 µM [4] [%] | IC50 [4] [nM] | IC50 [5] [nM] | IC50 [6] [nM]
1 | O=C(N1CCCC1)N1CC(CN2C(=O)C3(CCOCC3)N=C2c2ccc(-c3ccc4cccnc4c3)cc2)C1 [compound 701, 3-{[1-(Pyrrolidin-1-ylcarbonyl)azetidin-3-yl]methyl}-2-(4-quinolin-7-ylphenyl)-8-oxa-1,3-diazaspiro[4.5]dec-1-en-4-one] | 891 | 1260 | > 10000 | 95 | 479 | 3890 | 4570
2 | COC(=O)N1CC2(C1)N=C(c1ccc(-c3ccc4c(cnn4C)c3)cc1)N(C[C@@H]1CCN(C(=O)[C@H]3CCCO3)C1)C2=O [compound 739, Methyl 6-[4-(1-methyl-1H-indazol-5-ylyl)phenyl]-8-oxo-7-({(3R)-1-[(2R)-tetrahydro-furan-2-ylcarbonyl]pyrrolidin-3-yl}methyl)-2,5,7-triazaspiro[3.4]oct-5-ene-2-carboxylate] |  | ~871 |  | 92 | 234 | 513 | 3800
3 | Cn1cc(-c2ccc(-c3ccc(C4=NC5(CC5)C(=O)N4CC4CN(C(=O)C5CC5)C4)cc3)cn2)cn1 [compound 517, 6-{[1-(Cyclopropylcarbonyl)azetidin-3-yl]methyl}-5-{4-[6-(1-methyl-1H-pyrazol-4-yl)pyridin-3-yl]phenyl}-4,6-diazaspiro[2.4]hept-4-en-7-one] |  | 1260 |  | 88 | 646 | 1510 | ~5250
4 | O=C([C@H]1CCCO1)N1CC(CN2C(=O)C3(CCOC3)N=C2c2ccc(-c3ccc4occc4c3)cc2)C1 (stereo partly drawn) [compound 720, 2-[4-(1-Benzofuran-5-yl)phenyl]-3-({1-[(2R)-tetrahydro-furan-2-ylcarbonyl]azetidin-3-yl}methyl)-7-oxa-1,3-diazaspiro[4.4]non-1-en-4-one] |  | 4680 |  | 87 | 776 | 6460 | 9120
5 | Cn1ncc2c(-c3ccc(C4=NC5(CC5)C(=O)N4CC4CN(C(=O)C5CC5)C4)cc3)cccc21 [compound 515, 6-{[1-(Cyclopropylcarbonyl)azetidin-3-yl]methyl}-5-[4-(1-methyl-1H-indazol-4-yl)phenyl]-4,6-diazaspiro[2.4]hept-4-en-7-one] |  | 562 |  | 96 | 182 | 437 | 2140
6 | COC(=O)N1CC2(C1)N=C(c1ccc(-c3ccc4occc4c3)cc1)N(C[C@@H]1CCN(C(=O)[C@H]3CCCO3)C1)C2=O [compound 735, Methyl 6-[4-(1-benzofuran-5-yl)phenyl]-8-oxo-7-({(3R)-1-[(2T)-tetrahydro-furan-2-ylcarbonyl]pyrrolidin-3-yl}methyl)-2,5,7-triazaspiro[3.4]oct-5-ene-2-carboxylate] |  | ~912 |  | 97 | 135 | 851 | 3800
7 | O=C(C1CC1)N1CC[C@@H](CN2C(=O)C3(CC3)N=C2c2ccc(-c3cnc4ccccc4c3)cc2F)C1 [compound 257, (R)-6-((1-(cyclopropanecarbonyl)pyrrolidin-3-yl)methyl)-5-(2-fluoro-4-(quinolin-3-yl)phenyl)-4,6-diazaspiro[2.4]hept-4-en-7-one] |  | 70.8 |  | 99 | 49 | 200 | 263
8 | O=C(C1CC1)N1CC(CN2C(=O)C3(CC3)N=C2c2ccc(-c3ccc4cnc(F)cc4c3)cc2)C1 [compound 502, 6-{[1-(Cyclopropylcarbonyl)azetidin-3-yl]methyl}-5-[4-(3-fluoroisoquinolin-6-yl)phenyl]-4,6-diazaspiro[2.4]hept-4-en-7-one] |  | 1170 |  | 94 | 355 | 2140 | 4170
9 | Cn1cc(-c2ccc(-c3ccc(C4=NC5(CCOC5)C(=O)N4C[C@@H]4CCN(C(=O)C5CC5)C4)cc3)cc2)cn1 (stereo partly drawn) [compound 676, 3-{[(3R)-1-(Cyclopropylcarbonyl)pyrrolidin-3-yl]methyl}-2-[4′-(1-methyl-1H-pyrazol-4-yl)biphenyl-4-yl]-7-oxa-1,3-diazaspiro[4.4]non-1-en-4-one] |  | 501 |  | 98 | 269 | 603 | 1780
10 | COC(=O)N1CC2(C1)N=C(c1ccc(-c3ccc(-c4cnn(C)c4)cc3)cc1)N(C[C@@H]1CCN(C(=O)[C@H]3CCCO3)C1)C2=O [compound 727, Methyl 6-[4′-(1-methyl-1H-pyrazol-4-yl)biphenyl-4-yl]-8-oxo-7-({(3R)-1-[(2R)-tetrahydro-furan-2-ylcarbonyl]pyrrolidin-3-yl}methyl)-2,5,7-triazaspiro[3.4]ect-5-ene-2-carboxylate] |  | 575 |  | 98 | 204 | 1100 | 2400
11 | O=C(C1CC1)N1CC(CN2C(=O)C3(CC3)N=C2c2ccc(-c3cnc4ccccc4c3)cc2)C1 [compound 519, 6-{[1-(Cyclopropylcarbonyl)azetidin-3-yl]methyl}-5-(4-quinolin-3-ylphenyl)-4,6-diazaspiro[2.4]hept-4-en-7-one] |  | 550 |  | 96 | 158 | 389 | 2690

Molecules with a lower IC50 [5], results first:

Row | IC50 (A2780 ovarian cells [1]) [nM] | IC50 [2] [nM] | IC50 (A2780 ovarian cells [3]) [nM] | inhibition at 10 µM [4] [%] | IC50 [4] [nM] | IC50 [5] [nM] | IC50 [6] [nM] | Compound
12 | 72.4 | 55 | 8130 | 101 | 56.2 | 129 | 490 | Cn1nccc1-c1ccc(-c2ccc(C3=NC4(CC4)C(=O)N3C[C@@H]3CCN(C(=O)C4(O)CC4)C3)c(F)c2)cc1 [compound 371, (R)-5-(3-fluoro-4′-(1-methyl-1H-pyrazol-5-yl)-[1,1′-biphenyl]-4-yl)-6-((1-(1-hydroxycyclopropanecarbonyl)pyrrolidin-3-yl)methyl)-4,6-diazaspiro[2.4]hept-4-en-7-one]
13 | 245 | 437 | 6030 | 101 | 55 | 107 | 1150 | Cc1cc2cc(-c3ccc(C4=NC5(CC5)C(=O)N4CC4CN(C(=O)C5CC5)C4)c(F)c3)ccc2o1 [compound 353, 6-((1-(cyclopropanecarbonyl)azetidin-3-yl)methyl)-5-(2-fluoro-4-(2-methylbenzofuran-5-yl)phenyl)-4,6-diazaspiro[2.4]hept-4-en-7-one]
14 | 10.5 | ~18.2 | ~4680 | 102 | 24 | 61.7 | 50.1 | O=C(N1CC(CN2C(=O)C3(CC3)N=C2c2ccc(-c3ccc4cc(Cl)ccc4c3)cc2F)C1)C1(O)CC1 [compound 383, 5-(4-(6-chloronaphthalen-2-yl)-2-fluorophenyl)-6-((1-(1-hydroxycyclopropanecarbonyl)azetidin-3-yl)methyl)-4,6-diazaspiro[2.4]hept-4-en-7-one]
15 | ~21.4 | 25.1 | > 10000 | 103 | 43.7 | 60.3 | 123 | Cc1cc(-c2ccc3[nH]ncc3c2)ccc1C1=NC2(CC2)C(=O)N1C[C@@H]1CCN(C(=O)C2CC2)C1 [compound 286, (R)-5-(4-(1H-indazol-5-yl)-2-methylphenyl)-6-((1-(cyclopropanecarbonyl)pyrrolidin-3-yl)methyl)-4,6-diazaspiro[2.4]hept-4-en-7-one]
16 | ~977 | ~525 | > 10000 | 99 | 63.1 | 83.2 | 1120 | Cc1cc(-c2ccc3oc(C#N)cc3c2)ccc1C1=NC2(CC2)C(=O)N1C[C@@H]1CCN(C(=O)C2CC2)C1 [compound 255, (R)-5-(4-(6-((1-(cyclopropanecarbonyl)pyrrolidin-3-yl)methyl)-7-oxo-4,6-diazaspiro[2.4]hept-4-en-5-yl)-3-methylphenyl)benzofuran-2-carbonitrile]
17 | 87.1 | ~141 | > 10000 | 105 | 38 | 174 | ~513 | Cc1cc(-c2ccc3[nH]ncc3c2)ccc1C1=NC2(CC2)C(=O)N1CC1CN(C(=O)C2CC2)C1 [compound 293, 5-(4-(1H-indazol-5-yl)-2-methylphenyl)-6-((1-(cyclopropanecarbonyl)azetidin-3-yl)methyl)-4,6-diazaspiro[2.4]hept-4-en-7-one]
18 | 105 | 67.6 | > 10000 | 95 | 25.1 | 29.5 | 447 | O=C(C1CC1)N1CC[C@@H](CN2C(=O)C3(CC3)N=C2c2ccc(-c3ccc4cc(F)ccc4c3)cc2F)C1 [compound 259, (R)-6-((1-(cyclopropanecarbonyl)pyrrolidin-3-yl)methyl)-5-(2-fluoro-4-(6-fluoronaphthalen-2-yl)phenyl)-4,6-diazaspiro[2.4]hept-4-en-7-one]
